Here are results for two compounds from patent publication US10856563B2, “N-acyl-amino acid derivatives for improvement of the flavor profile of edible compositions” (Givaudan S.A., priority 2012, dated 2020).

A short description of assay [1]: Test on Tang (high intensity sweetener HIS masking), evaluation by expert tasters. The following applies: versus base. How it is done:
In an orange flavoured Tang powdered soft drink (market product) sweetened with sucrose plus high intensity sweetener (aspartame and acesulfame-K) and containing citric acid, C18:2-gaba and C18:2-pro were tested.
All samples were evaluated by expert tasters. Tasters were asked to describe the samples focusing on authentic taste, masking off notes of high intensity sweetener, mouthfeel & body, enhancement, richness, juiciness, long lastingness, salivation, sweetness
Base is Orange flavoured Tang
Base: sweet, orange, licorice, and lingering high intensity sweetener off-notes, bitter, thin

The nature of assay [2]: Test on liquid margarine (KCL masking), evaluation by expert tasters. The following applies: 2 ppm in Blueband liquid margarine, 0.8% KCL, proprietary masking flavour 0.01%. How it is done:
In Blueband liquid margarine (market product) with added KCL 0.8% and a proprietary masking flavour @ 0.01% 18:2 gaba was added at 2 ppm.
Samples were evaluated by expert tasters. Tasters were asked to describe the samples focusing on authentic taste, masking of KCL off notes, mouthfeel, saltiness, fullness, salivation, long lastingness and fattiness.
Base is Blueband, 0.8% KCL, proprietary masking @ 0.01%
Base: metallic, buttery, bitter and soapy

Assay [3] in a line: Test on soy milk (soy protein masking), evaluation by expert tasters. Particulars: 2 ppm in soy milk (1.8% fat), 5% sucrose, milk flavour 0.1%. How it is done: In a soy milk (1.8% fat) sweetened with 5% sucrose by weight, flavoured with a proprietary milk flavour at a dosage of 0.1%, C18:2-gaba was added at 2 ppm
Samples were evaluated by expert tasters. Tasters were asked to describe the samples focusing on authentic taste, masking of soy protein off notes, mouthfeel, fullness, salivation, sweetness, richness, long lastingness and fattiness.
Soy milk, 5% sucrose, milk flavor @ 0.1%: sweet, dry, green, soy bean taste

Take `CCCCC/C=C\C/C=C\CCCCCCCC(=O)N1CCC[C@H]1C(=O)O` [C18:2-Pro, N-linoleoyl-Pro]: the “masking off notes of high intensity sweetener” value in assay [1] (1 ppm in orange flavoured Tang (sucrose, aspartame, acesulfame-K, citric acid)) is on record as “the off-notes of the high intensity sweetener were suppressed”. The “taste description (enhancement, juiciness, authentic taste)” value in assay [1] (1 ppm in orange flavoured Tang) was “the fresh, sweet juicy orange notes are enhanced, characteristic of authentic fresh orange fruit”.
With `CCCCC/C=C\C/C=C\CCCCCCCC(=O)NCCCC(=O)O` [C18:2-gaba], in assay [2], the authentic taste result is reported as “more authentic butter”; the “masking of KCL off notes” value was “less metallic and bitter notes”; the saltiness and mouthfeel entry was “more saltiness, more mouthfeel”. For the same compound, the “masking off notes of high intensity sweetener” value in assay [1] (0.5 ppm in orange flavoured Tang (sucrose, aspartame, acesulfame-K, citric acid)) is on record as “the off-notes of the high intensity sweetener were suppressed”. Besides, the “taste description (enhancement, juiciness, mouthfeel)” value in assay [1] (0.5 ppm in orange flavoured Tang) was “the sweet juicy orange notes and mouthfeel are enhanced”. In assay [3], the “masking of soy protein off notes” value was “good reduction of the undesirable soy bean off-taste”; the “taste description (richness, mouthfeel, fattiness)” value is “clean, rich, creamy and milky”.
